From US20050181467A1, “ATP extraction method” (priority 2000, published 2005)

Target: luciferase (Photinus pyralis, UniProt P08659)
Test: ATP-luciferin-luciferase assay (light intensity, luminometer)
Assay type: biochemical, firefly
Conditions: for effect on light intensity: diluted concentrations compared with the positively charged extractant, 5; for neutralizing the inhibitory effect(s) of commonly employed extractants on the ATP-luciferin-luciferase light reaction: overall conclusion, SDS at the proper concentrations
Method: ATP-luciferin-luciferase assays were conducted to determine the effect of the following on assay activity: (1) Tween® 20 (2% Tween® 20 in 50 mM tricene buffer, pH 6.75), (2) MgSO4 (0.229 g/L in 50 mM tricene buffer, pH 7.46), (3) SDS (0.268 g/L in 50 mM tricene buffer, pH 7.61) and (4) a combination of MgSO4 and various amounts of Tween®. Each of these substances were assayed alone and in the presence of a commonly used positively charged ATP extractant, i.e., benzalkonium chloride (0.3325 g/L). Many of the assays were conducted in the presence of the following sanitizers: Ster-Bac® (1 oz/4 gal); Ster-Bac® (2.5 ml/L); XY-12 (200 ppm); XY-12 (600 ppm); Simplex Quat (1 oz/gal); Kleer-Mor® (1 oz/2 gal); and Kleer-Mor® (4 oz/2 gal). The MgSO4 and SDS assays were conducted using molar concentrations of MgSO4 and SDS equal to that of the positively charged extractant, as well as using molar concentrations of MgSO4 and SDS diluted as compared to that of the positively charged extractant.
Depending on the substance being tested, sanitizer, neutralizer (i.e., Tween® 20, MgSO4 or SDS), ATP solution, luciferin/luciferase cocktail, extractant and/or benzalkonium chloride (in various combinations) were placed in a cuvette and light intensity was read. Each sanitizer was run in duplicate. A control tube containing buffer and ATP was also run. Light output was measured in a Monolight 3010 luminometer. Each experiment was conducted in total volume of 0.42 ml in the curvette.

Chain of luciferase (P08659 whole entry, species assumed): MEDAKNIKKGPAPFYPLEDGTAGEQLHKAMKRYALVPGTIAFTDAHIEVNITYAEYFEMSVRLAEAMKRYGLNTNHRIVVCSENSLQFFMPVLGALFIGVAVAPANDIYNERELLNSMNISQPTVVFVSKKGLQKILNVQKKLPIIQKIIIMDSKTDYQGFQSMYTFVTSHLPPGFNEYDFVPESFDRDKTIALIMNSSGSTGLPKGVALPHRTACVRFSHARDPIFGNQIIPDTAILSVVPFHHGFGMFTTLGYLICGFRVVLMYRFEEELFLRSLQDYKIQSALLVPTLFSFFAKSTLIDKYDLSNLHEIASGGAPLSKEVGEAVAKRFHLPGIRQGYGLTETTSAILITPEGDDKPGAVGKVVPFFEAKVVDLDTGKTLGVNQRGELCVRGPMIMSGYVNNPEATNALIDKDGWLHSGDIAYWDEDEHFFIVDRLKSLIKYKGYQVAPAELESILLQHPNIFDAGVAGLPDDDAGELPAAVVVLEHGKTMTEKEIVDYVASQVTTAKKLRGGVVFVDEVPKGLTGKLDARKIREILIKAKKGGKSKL

SMILES | effect on light intensity (FIGS. 4A-4C) | performance as neutralizer compared with SDS (intensity of light) (equal concentrations of neutralizer and extractant, with sanitizer, with extractant and alone, FIG. 3) | performance as neutralizer compared with Tween 20 (intensity of light) (equal concentrations of neutralizer and positively charged extractant (benzalkonium chloride), various sanitizers, FIGS. 1 and 2) | neutralizing the effects of sanitizer (extractant, sanitizer and ATP-luciferin-luciferase solution, FIGS. 6A, 6B) | neutralizing the inhibitory effect(s) of commonly employed extractants on the ATP-luciferin-luciferase light reaction | neutralizing the inhibitory effects of benzalkonium chloride (diluted 1:2 or more compared with the extractant, FIGS. 4A-4C) | effect on the light reaction (equal concentrations of neutralizer and positively charged extractant, FIG. 3) | effect on the light reaction at too high a concentration (present at too high a concentration)
O=S(=O)([O-])[O-].[Mg+2] [MgSO4, magnesium sulfate] | increased light intensity over the undiluted MgSO4 | performed better than SDS in all assays | performed better than Tween® 20 as a neutralizer for all sanitizers except one | works at least as well and, in most cases, better than Tween® 20 | more effective than Tween® 20 | – | – | –
CCCCCCCCCCCCOS(=O)(=O)[O-].[Na+] [SDS, sodium dodecyl sulfate] | did not affect (inhibit) light intensity | – | – | – | neutralizes the inhibitory effect(s) | effective in neutralizing the inhibitory effects of benzalkonium chloride | not effective and inhibited the light reaction | completely eliminate the light reaction
